{"source": "patent US10919841B2", "about": "“Monoamine reuptake inhibitors” (Research Triangle Institute, priority 2009, dated 2021)", "key": {"(h)DAT [1]": {"biological_target": "T1, (h)DAT (Homo sapiens, UniProt Q01959)", "T1 construct": "expressed in transfected cells", "T1 sequence (Q01959 whole entry)": "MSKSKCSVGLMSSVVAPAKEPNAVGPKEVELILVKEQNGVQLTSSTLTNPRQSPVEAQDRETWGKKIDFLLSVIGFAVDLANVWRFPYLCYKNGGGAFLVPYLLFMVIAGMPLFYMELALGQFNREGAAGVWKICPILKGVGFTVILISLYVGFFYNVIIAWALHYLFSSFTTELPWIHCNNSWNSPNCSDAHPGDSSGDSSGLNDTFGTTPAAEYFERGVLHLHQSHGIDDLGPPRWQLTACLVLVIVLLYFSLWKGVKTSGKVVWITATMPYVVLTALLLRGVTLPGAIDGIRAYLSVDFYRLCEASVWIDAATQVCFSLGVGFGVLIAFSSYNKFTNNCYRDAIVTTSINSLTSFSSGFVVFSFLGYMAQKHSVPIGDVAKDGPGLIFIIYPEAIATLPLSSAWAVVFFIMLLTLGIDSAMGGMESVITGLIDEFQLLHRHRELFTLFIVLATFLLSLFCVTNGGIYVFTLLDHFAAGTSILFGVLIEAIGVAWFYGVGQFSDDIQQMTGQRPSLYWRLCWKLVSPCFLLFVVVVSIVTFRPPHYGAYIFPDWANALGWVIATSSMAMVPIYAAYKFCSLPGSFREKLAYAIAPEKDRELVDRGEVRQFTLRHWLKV", "experiment": "competition binding with [125I]RTI-55 at (h)DAT stably expressed in HEK293 cells", "details": "mean ± standard error of three independent experiments"}, "(h)NET [2]": {"biological_target": "T2, (h)NET (Homo sapiens, UniProt P23975)", "T2 sequence (P23975 whole entry)": "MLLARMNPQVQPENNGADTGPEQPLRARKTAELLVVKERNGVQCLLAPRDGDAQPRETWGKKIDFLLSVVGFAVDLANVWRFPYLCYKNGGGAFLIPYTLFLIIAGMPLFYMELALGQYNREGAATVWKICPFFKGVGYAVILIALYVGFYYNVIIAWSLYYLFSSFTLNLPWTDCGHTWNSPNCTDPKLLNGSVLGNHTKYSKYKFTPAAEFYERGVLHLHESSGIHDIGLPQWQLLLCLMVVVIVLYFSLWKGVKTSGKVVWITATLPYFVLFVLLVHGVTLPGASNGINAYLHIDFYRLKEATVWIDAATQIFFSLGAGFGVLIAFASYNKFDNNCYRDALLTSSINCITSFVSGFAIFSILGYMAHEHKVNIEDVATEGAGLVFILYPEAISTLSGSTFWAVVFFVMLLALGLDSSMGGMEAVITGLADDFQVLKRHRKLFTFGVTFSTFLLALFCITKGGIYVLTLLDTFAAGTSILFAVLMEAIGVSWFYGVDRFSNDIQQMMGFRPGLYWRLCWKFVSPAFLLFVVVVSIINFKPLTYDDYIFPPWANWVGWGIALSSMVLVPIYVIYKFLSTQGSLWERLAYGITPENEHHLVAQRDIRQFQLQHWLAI", "experiment": "competition binding with [125I]RTI-55 at (h)NET stably expressed in HEK293 cells", "details": "read-out: Binding, Ki NET; mean ± standard error of three independent experiments"}, "(h)DAT [3]": {"biological_target": "T1, (h)DAT", "experiment": "block of [3H]dopamine reuptake in HEK-(h)DAT cells", "assay_type": "cell-based"}, "rats [4]": {"system": "rats", "experiment": "cocaine discrimination time-course study, oral administration", "details": "for generalization to cocaine: p.o."}, "(h)SERT [5]": {"biological_target": "T3, (h)SERT (Homo sapiens, UniProt P31645)", "T3 construct": "expressed in transfected cells; host or cells: HEK293", "T3 sequence (P31645 whole entry)": "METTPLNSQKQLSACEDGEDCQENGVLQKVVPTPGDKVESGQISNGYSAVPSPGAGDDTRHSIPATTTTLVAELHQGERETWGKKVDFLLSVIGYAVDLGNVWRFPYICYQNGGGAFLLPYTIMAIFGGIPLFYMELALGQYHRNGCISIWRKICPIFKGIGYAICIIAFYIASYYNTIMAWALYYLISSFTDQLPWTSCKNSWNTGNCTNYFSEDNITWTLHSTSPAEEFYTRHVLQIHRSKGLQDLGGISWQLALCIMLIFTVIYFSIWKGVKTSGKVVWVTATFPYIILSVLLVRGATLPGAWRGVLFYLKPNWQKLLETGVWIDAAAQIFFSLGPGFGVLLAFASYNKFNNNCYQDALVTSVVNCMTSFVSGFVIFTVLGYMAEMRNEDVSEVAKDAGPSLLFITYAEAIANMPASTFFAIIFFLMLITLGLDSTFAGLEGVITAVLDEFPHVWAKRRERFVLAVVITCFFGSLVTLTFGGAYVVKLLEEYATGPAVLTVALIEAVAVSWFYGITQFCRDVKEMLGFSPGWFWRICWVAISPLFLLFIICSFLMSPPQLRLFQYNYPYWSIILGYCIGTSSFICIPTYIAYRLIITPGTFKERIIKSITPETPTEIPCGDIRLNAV", "experiment": "block of [3H]serotonin reuptake in HEK-(h)SERT cells", "assay_type": "cell-based", "details": "read-out: IC50 for 5HT uptake inhibition"}, "rats [6]": {"system": "rats", "experiment": "cocaine discrimination (2-lever operant), i.p. administration"}, "(h)SERT [7]": {"biological_target": "T3, (h)SERT", "details": "read-out: Binding, Ki SERT"}, "(h)NET [8]": {"biological_target": "T2, (h)NET", "experiment": "block of [3H]norepinephrine reuptake in HEK-(h)NET cells", "details": "read-out: IC50 for NE uptake inhibition; [3H]NE"}, "mice [9]": {"system": "mice", "experiment": "locomotor activity, 1-h observation protocol", "assay_type": "in vivo", "details": "Mus musculus"}, "mice [10]": {"system": "mice", "experiment": "locomotor activity, 8-h time course protocol", "assay_type": "in vivo"}, "serotonin transporter": {"biological_target": "serotonin transporter (Rattus norvegicus, UniProt P31652)", "sequence (P31652 whole entry)": "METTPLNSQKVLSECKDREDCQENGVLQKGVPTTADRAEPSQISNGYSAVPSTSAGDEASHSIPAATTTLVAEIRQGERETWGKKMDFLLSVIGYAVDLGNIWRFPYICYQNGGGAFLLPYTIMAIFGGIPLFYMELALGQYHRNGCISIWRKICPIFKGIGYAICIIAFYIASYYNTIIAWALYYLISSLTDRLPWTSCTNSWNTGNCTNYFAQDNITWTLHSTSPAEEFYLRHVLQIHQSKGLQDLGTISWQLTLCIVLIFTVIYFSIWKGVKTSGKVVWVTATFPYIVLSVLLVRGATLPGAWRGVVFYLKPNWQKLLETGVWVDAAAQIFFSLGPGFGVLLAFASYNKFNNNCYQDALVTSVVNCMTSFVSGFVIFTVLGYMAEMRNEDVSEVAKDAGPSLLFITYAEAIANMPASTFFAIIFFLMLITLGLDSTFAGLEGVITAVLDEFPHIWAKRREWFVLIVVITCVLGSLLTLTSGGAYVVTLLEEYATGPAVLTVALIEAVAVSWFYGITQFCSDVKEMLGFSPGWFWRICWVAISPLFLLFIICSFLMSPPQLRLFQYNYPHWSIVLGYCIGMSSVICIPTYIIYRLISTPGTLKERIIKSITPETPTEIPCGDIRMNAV", "experiment": "5-HT releasing/substrate activity using rat brain synaptosomes"}, "[11]": {"details": "Rattus norvegicus, ip, read-out: % cocaine lever responding"}}, "data": [{"smiles": "CC(NC1CC1)C(=O)c1cccc(Cl)c1", "note": "(stereo not shown) [Compound 2x, 2-(N-Cyclopropylamino)-3′-chloropropiophenone]", "values": [{"measurement": "Ki", "setting": "(h)DAT [1]", "value": 1150, "unit": "nM"}, {"measurement": "Ki", "setting": "(h)NET [2]", "value": 4, "unit": "µM"}, {"measurement": "IC50", "setting": "(h)DAT [3]; [3H]DA, read-out: IC50 for DA uptake inhibition", "value": 265, "unit": "nM"}, {"measurement": "times more potent than bupropion as DA uptake inhibitor", "setting": "(h)DAT [3]; relative to bupropion", "value": 3.6, "unit": "times"}, {"measurement": "ED50", "setting": "rats [4]; Rattus norvegicus, po, 0.75 h", "value": 13.3, "unit": "mg/kg"}, {"measurement": "generalization to cocaine", "setting": "rats [4]; 45 min, 10 mg/kg", "value": "partial generalization"}, {"measurement": "generalization to cocaine", "setting": "rats [4]; 45 min, 25 mg/kg", "value": "partial generalization"}, {"measurement": "generalization to cocaine", "setting": "rats [4]; 90 min, 25 mg/kg", "value": "full generalization"}, {"measurement": "generalization to cocaine", "setting": "rats [4]; 180 min, 25 mg/kg", "value": "full generalization"}, {"measurement": "IC50", "setting": "(h)SERT [5]", "value": 3.18, "unit": "µM"}, {"measurement": "responders at 5 mg/kg", "setting": "rats [6]; [11]", "value": 6, "unit": "%"}, {"measurement": "responders at 10 mg/kg", "setting": "rats [6]; [11]", "value": 67, "unit": "%"}, {"measurement": "responders at 25 mg/kg", "setting": "rats [6]; [11]", "value": 34, "unit": "%"}, {"measurement": "responders at 50 mg/kg", "setting": "rats [6]; [11]", "value": 17, "unit": "%"}, {"measurement": "responders at 100 mg/kg", "setting": "rats [6]; [11]", "value": 17, "unit": "%"}, {"measurement": "cocaine-appropriate responding (partial generalization)", "setting": "rats [6]; i.p., 5 mg/kg", "value": 67, "unit": "%"}, {"measurement": "cocaine-appropriate responding", "setting": "rats [6]; i.p., 10 mg/kg", "value": 67, "unit": "%"}, {"measurement": "response rate, in words", "setting": "rats [6]; i.p., dose range given in the value", "value": "affected response rate at 25-100 mg/kg"}, {"measurement": "Ki", "setting": "(h)SERT [7]", "value": 3.42, "unit": "µM"}, {"measurement": "IC50", "setting": "(h)NET [8]", "value": 2150, "unit": "nM"}, {"measurement": "Emax", "setting": "mice [9]; 0.5 h, read-out: Locomotor Activity 1-Hour % Peak Cocaine", "value": 94, "unit": "%"}, {"measurement": "ED50", "setting": "mice [9]; dose to produce 50% of the compound's maximal effect, 1-h", "value": 14.7, "unit": "mg/kg"}, {"measurement": "locomotor stimulant activity across the 1-h and 8-h protocols, in words", "setting": "mice [10]; 1-h and 8-h tests compared", "value": "strong stimulants in both studies"}, {"measurement": "Emax", "setting": "mice [10]; Mus musculus, read-out: Locomotor Activity 8-Hour % Peak Cocaine, percent of cocaine's maximal effect, 30 min period of maximum stimulation", "value": 94, "unit": "%"}, {"measurement": "ED50", "setting": "mice [10]; Mus musculus, dose to produce 50% of the compound's maximal effect, 8-h, read-out: Locomotor Activity 8-Hour ED50", "value": 14.7, "unit": "mg/kg"}, {"measurement": "Locomotor Activity 8-Hour Time, min Period, length", "setting": "mice [10]; duration of locomotor activity", "value": 350, "unit": "min"}, {"measurement": "Locomotor Activity 8-Hour Time, min Period, max", "setting": "mice [10]; time period of maximum effect", "value": "0 to 30", "unit": "min"}, {"measurement": "EC50", "setting": "serotonin transporter", "value": 283, "unit": "nM"}]}]}
